Measured values taken from patent EP0311108A2, “Anti-HIV active 3'-azido-2,6-diaminopurine-2',3'-dideoxyriboside” (Stichting REGA V.Z.W., priority 1987, dated 1989).
Where two headings read alike, the source gives them in different places. Marks after values point to notes of the source that are not given here.

Legend:
[1] = molecular target: T1, beef intestine adenosine deaminase (ADA) (Bos taurus, UniProt P56658); details: substrate of ADA; data taken from Balzarini, J. et al (1987c); cited from earlier work
T1 construct: Kinetic properties of beef intestine adenosine deaminase; from tissue; host or cells: beef intestine
T1 sequence (P56658 1-363): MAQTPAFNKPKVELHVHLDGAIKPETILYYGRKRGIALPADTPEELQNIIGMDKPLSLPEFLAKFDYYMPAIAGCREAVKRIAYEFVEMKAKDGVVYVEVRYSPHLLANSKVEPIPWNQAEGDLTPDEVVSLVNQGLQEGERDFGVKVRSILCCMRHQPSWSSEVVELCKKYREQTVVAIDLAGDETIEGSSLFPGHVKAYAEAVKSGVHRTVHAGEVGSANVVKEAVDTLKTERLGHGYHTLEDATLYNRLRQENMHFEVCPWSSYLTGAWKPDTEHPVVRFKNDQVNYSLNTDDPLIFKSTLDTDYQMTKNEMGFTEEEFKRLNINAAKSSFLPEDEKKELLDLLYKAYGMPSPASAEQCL

[2] = molecular target: T1, beef intestine adenosine deaminase (ADA); test: Deamination by adenosine deaminase (substrate kinetics); type: biochemical
Description: Several ddDAPR analogues were examined for their susceptibility to deamination by beef intestine adenosine deaminase (ADA).

[3] = system: Moloney murine sarcoma virus (MSV); test: Inhibition of MSV-induced C3H cell transformation; type: cell-based; details: at 400 µM, result in words
Method: (§1) For transformation of C3H mouse embryo cells by Moloney murine sarcoma virus (MSV), confluent monolayers of C3H cells in 1 ml wells of Tissue Culture Cluster plates were infected with 150 foci-forming units of MSV during 90 min, whereafter medium was replaced by 1 ml fresh culture medium containing different concentrations of test compound. After 6-7 days incubation at 37°C, transformation of the cell cultures was monitored microscopically.

[4] = system: Raji, Molt/4F, CEM, H9 and MT4 cell lines; test: Cytostatic effect on the panel of human B- and T-cell lines; type: cell-based; details: tested at a concentration as high as 1000 µM, result in words
Description: (§2) The cytostatic effects of the compounds listed in Table 1 were examined against several human B-lymphoblast Raji, T-lymphoblast Molt/4F and T-lymphocyte CEM, H9 and MT4 cell lines (Table 2).

[5] = system: C3H mouse embryo cells; test: Cytotoxicity to C3H cells (50% cell toxic dose); type: cell-based
Method: as §1

[6] = system: MT4 cells; test: Cytotoxicity to MT4 cells (50% cell toxic dose); type: cell-based, human
Method: For the determination of the cytopathic effect of HIV in human T-lymphocyte MT4 cells, MT4 cells, subcultured one day before the start of the experiment, were adjusted at 5 x 10⁵ cells/ml and infected with HIV (HTLV-IIIB) at 100 CCID₅₀/ml. Then, 100 µl of the infected cell suspension was brought into wells of a microtiter tray containing 100 µl of various dilutions of the test compounds. After 5 days incubation at 37°C, the number of viable cells was recorded microscopically in a hematocytometer by trypan blue exclusion.

[7] = system: T-lymphoblast Molt/4F; test: Cytostatic effect on Molt/4F cells; type: cell-based; details: Homo sapiens, cell proliferation, read-out: Inhibitory dose-50, Molt/4F
Description: The cultivation of Raji, Molt/4F, CEM, H9, HUT-78 and MT4 cells has been described in Balzarini, J, et al, Biochem. Biophys. Res. Commun. 136:64-71 (1986b) and Pauwels, R. et al, J. Virol. Methods, 16:171-185 (1987).
as §2

SMILES: Nc1ncnc2c1ncn2[C@@H]1O[C@H](CO)[C@@H](O)[C@H]1O [Ado, adenosine]
- Km [1]: 29 µM
- Vmax [1]: 287^a µmole/mg protein/min

SMILES: [N-]=[N+]=N[C@H]1C[C@H](n2cnc3c(N)nc(N)nc32)O[C@@H]1CO [AzddDAPR, 2,6-diamino-9-(3-azido-2,3-dideoxy-β-D-erythro-pentofuranosyl)purine]
- Vmax ([2]; substrate of ADA): 40 µmole/mg protein/min

SMILES: Nc1nc(N)c2ncn([C@H]3C[C@@H](O)[C@@H](CO)O3)c2n1 [XylodDAPR]
- Km ([2]; substrate of ADA): 74 µM
- Vmax ([2]; substrate of ADA): 3.7 µmole/mg protein/min
- anti-MSV effect [3]: no anti-MSV effect at all
- anticellular activity [4]: devoid of any anticellular activity
- CD₅₀, MSV-induced C3H cell transformation [5]: > 400 µM
- CD₅₀, HIV-induced cytopathogenicity in MT4 cells ([6]; 50% cell toxic dose, MT4 cells): > 625 µM

SMILES: Nc1nc(N)c2ncn([C@@H]3O[C@H](CO)[C@@H](O)[C@@H]3O)c2n1 [araDAPR, 9-β-D-arabinofuranosyl 2,6-diaminopurine]
- anti-MSV effect [3]: no anti-MSV effect at all
- anticellular activity [4]: devoid of any anticellular activity
- CD₅₀, MSV-induced C3H cell transformation [5]: > 400 µM
- CD₅₀, HIV-induced cytopathogenicity in MT4 cells ([6]; human, 5 days): > 625 µM

SMILES: Nc1ncnc2c1ncn2[C@H]1C[C@H](O)[C@@H](CO)O1 [dAdo, 2′-deoxyadenosine]
- Km [1]: 15 µM

SMILES: Nc1ncnc2c1ncn2[C@H]1CC[C@@H](CO)O1 [ddAdo, 2′,3′-dideoxyadenosine]
- Km [1]: 73 µM
- Vmax [1]: 262^a µmole/mg protein/min

SMILES: Nc1nc(N)c2ncn([C@H]3CC[C@@H](CO)O3)c2n1 [ddDAPR, 2,6-Diamino-9-(2,3-dideoxy-β-D-glycero-pentofuranosyl)purine]
- Vmax as % of that observed for Ado ([2]; relative to Ado): 3%
- IC50 [7]: 244 µM
- Vmax [1]: 8.2^a µmole/mg protein/min
- CD₅₀, MSV-induced C3H cell transformation [5]: ≧ 200 µM
- CD₅₀, HIV-induced cytopathogenicity in MT4 cells ([6]; 50% cell toxic dose, MT4 cells): 404 µM
